Results as given in US9717732B2, “Drug combination” (VERONA PHARMA PLC, priority 2013, dated 2017).

Assays:
[1] = tested on: passively sensitized human isolated bronchi; assay: Contraction induced by histamine in passively sensitized human bronchi; conditions: RPL554 100 μM
Method: Human isolated bronchial rings were rotated overnight at room temperature in tubes containing KH buffer solution in the absence (non-sensitized control rings) or the presence of 10% vol^−1 sensitizing serum (sensitized rings) as described elsewhere (Watson et al., 1997; Rabe, 1998). Subjects suffering from atopic asthma (total IgE>250 U^−1 specific against common aeroallergens) during exacerbation provided signed consent for serum donation.
Sera was prepared by centrifugation of whole blood and sera samples were frozen at −80° C. in 200 ml aliquots until required.
The next morning, after removal of adhering alveolar and connective tissues, bronchial rings were transferred into an organ bath containing KH buffer (37° C.) and continuously gassed with a 95% O2/5% CO2. Tissues were pre-incubated for 30 min with RPL554 (1, 10 and 100 μM) and then followed (without washing) by the construction of concentration responses curve to histamine (10 nM-1 mM) in the presence of RPL554.
Appropriate curve-fitting to a sigmoidal model was used to calculate the effect (E), the Emax and the concentration required to cause a 50% maximal effect (EC50). The equation used was log [agonist] vs. response, Variable slope, expressed as Y=Bottom+(Top−Bottom)/{1+10^[(Log EC50−X)*HillSlope]} (Motulsky and Christopoulos, 2004; Goodman et al., 2008). […]

anaesthetized rats = assay: Cardiovascular interaction (safety) study, blood pressure and heart rate, i.v. bolus; format: in vivo, rat
Excerpt: This study was undertaken to determine whether RPL554 has cardiovascular interactions with a β2-adrenergic receptor agonist (salbutamol). A muscarinic receptor antagonist (atropine) was included for completeness. RPL554 is a dual PDE3/PDE4 inhibitor being developed for treatment of chronic obstructive pulmonary disease (COPD) and asthma as an inhaled bronchodilator with possible anti-inflammatory actions. […] The study design was blind and random with drugs given as pairs five minutes apart in an alternating manner, e.g., RPL554 followed by salbutamol and vice versa. […] Instead they were chosen to test for possible interactions under supra therapeutic conditions.
Doses producing a 15-30 mmHg increase in mean blood pressure (MBP) and 30-60 beats per minute increase in heart rate (HR) were chosen from an initial dose-response study for RPL554 and salbutamol. […] Thereafter, the chosen doses were examined in pairs administered 5 minutes part. […] The intention of the study was to use supra normal conditions in order to challenge for possible interactions under supra therapeutic conditions.
The studies were performed on Sprague-Dawley male rats from Charles River weighing 200-250 grms. […] For the purposes of the experiment the animals were anaesthetized with thiobutabarbital at a dose of 100 mg/kg given by the i.p. route. There was no necessity for supplemental anaesthesia and at the end of the experimental period each rat was sacrificed. The study had two parts: (I) an initial dose ranging study and (II) the interaction study. The drugs studied were: RPL554 (R), salbutamol (S), atropine (A) all dissolved in saline.
An initial dose-ranging study was performed as follows: cumulative dose-response curves for intravenous bolus doses of the three drugs were performed to determine appropriate doses of each of the three drugs for the full study. Doses of RPL554 or salbutamol producing a 15-30 mmHg increase in mean blood pressure (MBP) and 30-60 beats per minute increase in heart rate (HR) were chosen from this initial dose-response study. […] This dose-ranging study involved four rats in which cumulative doses of each of the 3 drugs were given on a dose-doubling basis. Doses of each of the drugs were given as i.v. bolus injections every 5 minutes with 1 hour between different drugs. The order of injections were: for animal 1—S, R, A; animal 2—R, A, S; animal 3—A, S, R and animal 4—R, A, S. As indicated above the doses and routes of injection where chosen as supernormal and above doses producing effects when given by inhalation.
In this study all drugs were given as a single dose by i.v. bolus injection, via a jugular vein cannula, and at a volume of 1 mL/kg. The study design was blind and random with three lines each containing four animals for a total of 12 animals.
Pairs of drugs were given to individual animals on a randomized blind basis using a line by line design where each line contained four rats with injections as follows: R1S2, S1R2, R1A2 and A1R2 (in random order where 1 indicates the first drug given and 2 indicates the second drug given 5 minutes after the first drug). A total of 3 lines were studied thus a total of 12 rats were used and none of the animals had to be replaced.

[2] = tested on: human isolated bronchial preparations; assay: Inhibition of EFS-induced contraction of human isolated bronchi; conditions: after termination of drug exposure
Method: Regions of macroscopically normal lungs were taken from uninvolved areas resected from 24 subjects (11 male and 13 female, 60.1±1.6 years old) undergoing lobectomy surgery for lung cancer, but without a history of chronic airway disease.
Airways were immediately placed into oxygenated Krebs-Henseleit buffer solution (KH) (mM: NaCl 119.0, KCl 5.4, CaCl2 2.5, KH2PO41.2, MgSO4 1.2, NaHCO3 25.0, glucose 11.7; pH 7.4) containing the cyclooxygenase (COX) inhibitor indomethacin (5.0 μM), and transported at 4° C. from the “Regina Elena National Cancer Institute” or the “Sant'Andrea Hospital” to the Respiratory Research Laboratory in the Surgery and Medicine Faculty of “Tor Vergata University”, Rome, Italy. None of the subjects were chronically treated with theophylline, β2-agonists or glucocorticosteroids. Serum IgE levels determined on the day of surgery were in the normal range. […]
Human bronchi were placed in organ baths containing KH buffer solution (37° C.) medicated with indomethacin (5.0 μM), bubbled with 95% O2/5% CO2 and suspended under passive tension (0.5-1.0 g). […] Changes in isometric tension were measured with a transducer (Fort 10 WPI, Basile, Instruments, Italy) and the tissue responsiveness was assessed by acetylcholine (100 μM); when the response reached a plateau, rings were washed three times and allowed to equilibrate for 45 min. […]

Guinea pigs = assay: Reduction in mean arterial blood pressure after iv. administration; format: in vivo, guinea pig; conditions: 20 μg/kg RPL554 iv., control (alone)
Method: (§1) Guinea pigs were anaesthetized and ventilated. Airway obstruction was induced by the intravenous administration of bombesin (2 μg/ml; 5 ml/hr). Bronchodilation was induced by the iv. administration of RPL554 alone at various doses, or in combination with sub maximal dose of salbutamol (20 μg/kg). Doses were selected following studies generating a dose-response curve for both salbutamol to select a dose resulting in approximately 20% reduction in airways obstruction. Total lung resistance (RL) and mean arterial blood pressure were measured. Data are expressed as % reduction in airways obstruction or blood pressure.

[3] = tested on: human isolated bronchial tissues pre-contracted with acetylcholine; assay: Relaxation of human isolated bronchi pre-contracted with acetylcholine (EC70), drugs alone and in combination, synergy analysis; conditions: n=5; for slope (nH): 4 parameter logistic fit
Method: Bronchial rings were mounted on hooks in the organ baths where one hook was attached with threaded to a stationary rod and the other hook tied with thread to an isometric force displacement transducer. […] Tallarida, 2001; Goldoni and Johansson, 2007; Boik et al., 2008; Lee, 2010). […] Goodman et al., 2008). E/Emax was expressed as percentage of Emax elicited by the contractile agents; […] The analysis of the potential synergism between RPL554 plus a β2-adrenergic receptor agonist was measured by applying the Berenbaum method, the Bliss Independence (BI) criterion and the Loewe Additivity (LA) model through curved isoboles (Berenbaum, 1977; Greco et al., 1995; Grabovsky and Tallarida, 2004; Tallarida, 2006; Goldoni and Johansson, 2007; Tallarida and Raffa, 2010). […] Lee, 2010). The BI theory for two agents is expressed by the following equation: E(x,y)=Ex+Ey-(Ex*Ey), where E is the fractional effect, and x and y are the concentrations of two compounds in a combination experiment. If the combination effect is higher than the expected value from the above equation, the interaction is considered synergistic, while if this effect is lower, the interaction is antagonistic. […] In this study, the BI equation was characterized by X=RPL554 and Y=β2-adrenergic receptor agonist. […] Using the concept of dose equivalence, the relationship a/A+b/B=1 was reformulated as b+beq (a)=B, where beq is the dose equivalent of a and solving for beq(a) by equating the two individual concentration response curves EA=f(A) and EB=f(B). The additive response (Eab) for each dose combination with respect to B was then calculated by insertion of B into EB=f(B). The difference between the observed relaxation response to the combination doses and the additive response was calculated and analysed using a one sample t-test and for multiple comparisons, the probability was adjusted for multiple comparisons using a Bonferroni correction. For illustrative purposes, the 1:1 dose combinations were analysed for synergy. […] Then, concentration response curves were constructed to test individual compound RPL554, or salbutamol alone; or RPL554 administered in combination with salbutamol in order to produce isobolar graphs (salbutamol:RPL554 and ranging from 10:1 to 1:100) as described elsewhere (Greco et al., 1995; Tallarida, 2001; Goldoni and Johansson, 2007; Boik et al., 2008; Lee, 2010).

guinea pig airways = assay: Reversal of bombesin-induced airways obstruction (total lung resistance); format: in vivo; conditions: salbutamol 20 μg/kg alone
Method: as §1

| Structure (SMILES) | Effect on contraction induced by histamine [1] | Time to peak response, blood pressure (anaesthetized rats) | Time to peak response, heart rate (anaesthetized rats) [min] | Duration of inhibition of EFS contractile response after exposure to drug [2] | reduction in mean arterial blood pressure (Guinea pigs) [%] | slope (nH) ([3]; mean±SD) | reduction in airways obstruction (guinea pig airways) [%] | EC50 ([3]; Homo sapiens, geomean (95% CI), acetylcholine EC70, read-out: potency (EC50), relaxation) [µM] | Emax ([3]; Homo sapiens, mean±SD, acetylcholine EC70, percentage of papaverine (500 μM) induced relaxation) [%] |
| --- | --- | --- | --- | --- | --- | --- | --- | --- | --- |
| COc1cc2c(cc1OC)-c1cc(=Nc3c(C)cc(C)cc3C)n(CCNC(N)=O)c(=O)n1CC2 [RPL554, 9,10-Dimethoxy-2-(2,4,6-trimethylphenylimino)-3-(N-carbamoyl-2-aminoethyl)-3,4,6,7-tetrahydro-2H-pyrimido[6,1-a]isoquinolin-4-one] | completely abolished the contraction induced by histamine | 60 to 80 s | 2 to 4.5 | at least 5 h | 37.3±6.7 | 2.271±0.713 |  |  |  |
| CN1[C@@H]2CC[C@H]1C[C@@H](OC(=O)C(CO)c1ccccc1)C2 (some centres unmarked) [atropine] |  | 240 s | 4 |  |  |  |  |  |  |
| CC(C)(C)NCC(O)c1ccc(O)c(CO)c1 (centres unmarked) [salbutamol] |  | approximately 20 seconds | ~1 |  |  | 1.572±0.482 | 34.2±11.1 | 0.283 | 78 ± 11 |
